Read-outs that look alike come from different tables or passages of the source.
Tests used:
[1] = tested on: SOD1 G93A mouse model of ALS; assay: Neurological score in SOD1 G93A mouse model of ALS; assay type: in vivo; settings: for Neurological score significance (Males & Females combined): p value, mixed piece wise linear analysis
Procedure: Neurological Scoring: From day 85 onward, neurological score was recorded on a 4-point scale: • 0=Normal reflex on the hind limbs (animal will splay its hind limbs when lifted by its tail) • 1=Abnormal reflex (Lack of splaying of hind limbs when animal is lifted by the tail). • 2=Abnormal reflex and visible evidence of paralysis • 3=Lack of reflex and total paralysis of hind limbs. • 4=Inability to right themselves when placed on the sides in 30 seconds or found dead. The animals are sacrificed at this stage if alive.

[2] = Maximal tolerated dose in the mouse studies; assay type: in vivo; settings: dose of these studies is quite close to it
Procedure: The dose of Ritonavi® in these studies (50 mg/Kg) is quite close to its maximal tolerated dose.

ALS patient = assay: Ritonavir treatment of an ALS patient; assay type: in vivo, human; settings: one patient
Description: The patient was on ventilator and non-ambulatory. The patient was paralyzed below the waist except the neck region, and communicated with head movement using Morse code based computer keys. […] The biceps and forearms of the patient were paralyzed for several years.
After administering Ritonavir® for nine months, the patient underwent neurological examination.

[3] = tested on: proteasomal chymotrypsin activity; settings: at 5 uM concentration; cited from earlier work
[4] = tested on: experimental autoimmune encephalomyelitis (EAE); settings: previous animal efficacy studies, cited from earlier work
[5] = tested on: IκB degradation and NF-κB mediated signal transduction; settings: at high doses (approximately 100 μM); cited from earlier work
caspase 3 = molecular target: T1, caspase 3 (Homo sapiens, UniProt P42574); settings: cited from earlier work
T1 sequence (P42574 29-277): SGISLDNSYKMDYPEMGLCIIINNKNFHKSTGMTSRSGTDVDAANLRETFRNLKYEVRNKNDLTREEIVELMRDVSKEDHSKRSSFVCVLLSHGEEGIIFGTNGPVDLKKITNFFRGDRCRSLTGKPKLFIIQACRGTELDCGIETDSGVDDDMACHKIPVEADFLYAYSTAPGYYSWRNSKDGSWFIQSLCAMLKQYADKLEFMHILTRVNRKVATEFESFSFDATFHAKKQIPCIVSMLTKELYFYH

cell proliferation = settings: by arresting cells in the GI phase the cell cycle; cited from earlier work
[6] = molecular target: LMP7 component of the immunoproteosome (Homo sapiens, UniProt P28062); settings: cited from earlier work
[7] = tested on: antigen processing and MHC I expression; settings: cited from earlier work
[8] = in vivo; cited from earlier work
AIDS patients = settings: human, in vivo; cited from earlier work
[9] = tested on: SOD1 G93A mouse model of ALS; assay: Survival in SOD1 G93A mouse model of ALS; settings: for Female (% effect on survival) / Female (Days) survival: females; for Combined (% effect on survival) / Combined (Days) survival: males+females; for Combined (Days) survival / Female (Days) survival / Male (Days) survival: mean; for Female (Days) survival / Male (Days) survival: treated; for Male (Days) survival / Male (% effect on survival): males;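 on all read-outs here: heterozygous transgenic SOD1 G93A mice dosed from 60 days of age until death, checked daily for death, compared with vehicle-treated controls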
Procedure: Model Description: The SOD1 G93A (high copy) mouse model is a mouse that carries 25 copies of the human G93A SOD mutation and is driven by the endogenous promoter.
Murine ALS model: Heterozygous transgenic mice carrying the human SOD-1 (G93A) gene were obtained from Jackson Laboratory (Bar Harbor, Me., USA) and experiments were performed under IRB protocol at Massachusetts College of Pharmacy.
Control Drug and Pharmacological Agent Preparation and Delivery: The drugs were formulated in suitable vehicles and control groups were given the same vehicle as treatment. […] Mice were treated from 60 days of age until death and were monitored daily for weight, neurological score and death.
Statistical Analysis: Statistical analysis on the neurological score, body weight and survival was done by utilizing ANOVA, Kaplan Meier, t-test, Cox's proportional hazards regression model and mixed linear model methods. All statistical analysis was performed using standard procedures known in the art.

patients with ALS = settings: Borras-Blasco et al. (1998); cited from earlier work
proteasome = settings: at very high concentrations; cited from earlier work
[10] = after nine months of administration
[11] = Combined Ritonavir studies (100% Litter matched), vs control
[12] = Combined Ritonavir studies (100% Litter matched)
[13] = study Ritonavir-1, 50 mg/Kg/day IP
[14] = study Ritonavir-2, 50 mg/Kg/day IP
[15] = study Ritonavir-3, 50 mg/Kg/day IP

## CC(C)c1nc(CN(C)C(=O)N[C@H](C(=O)N[C@@H](Cc2ccccc2)C[C@H](O)[C@H](Cc2ccccc2)NC(=O)OCc2cncs2)C(C)C)cs1 (relative stereo) [Ritonavir, 10-Hydroxy-2-methyl-5-(1-methylethyl)-4-thiazolyl]-3,6-dioxo-8,11-bis (phenylmethyl)-2,4,7,12-tetraazatridecan-13-oic acid, 5-thiazolylmethyl ester, [5S-(5R*,8R*,10R*,11R*)]]
[1]; study Ritonavir-1
  Neurological score significance (Males & Females combined): p < 0.0001
[1]; study Ritonavir-2
  Neurological score significance (Males & Females combined): p < 0.0001
[1]; study Ritonavir-3
  Neurological score significance (Males & Females combined): p = 0.0007
[1]; three separate studies
  disease progression (neurological score), overall conclusion: reproducible slowing
[2]
  maximal tolerated dose: ~50 mg/kg
ALS patient; 400 mg/day for about nine months
  therapeutic effects in an ALS patient: ameliorating the effects of ALS, slowing progression of the disease, and improving survival
ALS patient; 400 mg/day
  time until beneficial therapeutic effects were experienced: after three weeks
ALS patient; [10]
  diaphragm strength (neurological examination): gained enough strength to dislodge a tracheostomy cuff when sneezing
  pectoral muscle strength: gained significant strength
  swallowing (neurological examination): able to swallow
ALS patient; after treatment
  muscles that had been paralyzed for years: again under conscious control and showed electrical nerve activity
[3]
  inhibition of proteasomal chymotrypsin activity: inhibition
[4]
  effect in the EAE model: protective
[4]; listed as pharmacological agent
  effect in the EAE model: prevented the development
[5]
  inhibition of IκB degradation and NF-κB mediated signal transduction: inhibit
Caspase 3
  activity of caspase 3: inhibit
Cell proliferation
  cell proliferation: suppress
[6]
  binding to the LMP7 component of the immunoproteosome: binds
[7]
  antigen processing and MHC I expression: decreased
[8]
  plasma levels, female animals compared to males: higher plasma levels
AIDS patients
  toleration in AIDS patients: good toleration
[9]; [11]
  Female (% effect on survival): −1%
  Combined (% effect on survival): 2%
[9]; Combined Ritonavir studies (100% Litter matched), treated N=48
  Combined (Days) survival: 141 days
[9]; [12]
  Female (Days) survival: 138 days
  Male (Days) survival: 144 days
[9]; study Ritonavir-1, vs control
  Female (% effect on survival): None
  Male (% effect on survival): 10%
[9]; study Ritonavir-1, (mean treated-mean control)/mean control*100
  Combined (% effect on survival): 5%
[9]; study Ritonavir-1, treated N=20, 50 mg/Kg/day IP
  Combined (Days) survival: 145 days
[9]; [13]
  Female (Days) survival: 141 days
  Male (Days) survival: 149 days
[9]; study Ritonavir-2, vs control
  Female (% effect on survival): 6%
  Combined (% effect on survival): 7%
  Male (% effect on survival): 8%
[9]; study Ritonavir-2, treated N=18, 50 mg/Kg/day IP
  Combined (Days) survival: 149 days
[9]; [14]
  Female (Days) survival: 144 days
  Male (Days) survival: 153 days
[9]; study Ritonavir-3, vs control
  Female (% effect on survival): −5%
  Combined (% effect on survival): 2%
  Male (% effect on survival): 7%
[9]; study Ritonavir-3, treated N=18, 50 mg/Kg/day IP
  Combined (Days) survival: 137 days
[9]; [15]
  Female (Days) survival: 134 days
  Male (Days) survival: 139 days
[9]; three separate studies
  survival, overall conclusion: prolongation
[9]; three studies, based on neurological score and survival data
  activity compared with positive control riluzole: more active

## Nc1nc2ccc(OC(F)(F)F)cc2s1 [Riluzole]
Patients with ALS
  muscular strength of ALS patients: does not appear to provide an improvement

## CC(C)(C)NC(=O)[C@@H]1C[C@@H]2CCCC[C@@H]2CN1C[C@@H](O)[C@H](Cc1ccccc1)NC(=O)[C@H](CC(N)=O)NC(=O)c1ccc2ccccc2n1 [saquinavir]
proteasome
  alteration of proteasome activity: alters proteasome activity

Reference: US7902185B2, “Treatment of neurodegenerative diseases using proteasome modulators” (ALS Therapy Development Foundation, Inc., priority 2002, dated 2011)
